“And” between values parts separate entries of the source, which are not always exact repeats. Identical values can stand only once. Toxic doses and inconclusive results are not listed. No stated cut-off is given here; in the data, active means T/C of 150% or more; inactive means T/C below 125%.
Test system: L1210 leukemia ip in BDF1 mice, survival T/C
Assay: NCI In Vivo Anticancer Drug Screen. Data for tumor model L1210 Leukemia (intraperitoneal) in B6D2F1 (BDF1) mice
Conditions: endpoint: mean survival time, higher = longer survival
Method in brief: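 Antitumor effect is assessed in tumor-bearing animals. Survival in the compound arm is compared with a vehicle-dosed control arm and expressed as their quotient.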

[1] = dose: 100.0 mg/kg/injection, schedule: Q01DX009 (ip), vehicle: Klucel (hydroxypropylcellulose) (HPC)
[2] = dose: 200.0 mg/kg/injection, schedule: Q01DX009 (ip), vehicle: Klucel (hydroxypropylcellulose) (HPC)
[3] = dose: 400.0 mg/kg/injection, schedule: Q01DX009 (ip), vehicle: Klucel (hydroxypropylcellulose) (HPC)
[4] = dose: 50.0 mg/kg/injection, schedule: Q04DX003 (ip), vehicle: Klucel (hydroxypropylcellulose) (HPC)
[5] = dose: 100.0 mg/kg/injection, schedule: Q04DX003 (ip), vehicle: Klucel (hydroxypropylcellulose) (HPC)
[6] = dose: 200.0 mg/kg/injection, schedule: Q04DX003 (ip), vehicle: Klucel (hydroxypropylcellulose) (HPC)
[7] = dose: 100.0 mg/kg/injection, schedule: Q04DX003 (ip), vehicle: saline with Tween-80
[8] = dose: 200.0 mg/kg/injection, schedule: Q04DX003 (ip), vehicle: saline with Tween-80
[9] = dose: 400.0 mg/kg/injection, schedule: Q04DX003 (ip), vehicle: saline with Tween-80

Measured: T/C

CC(=O)Nc1ccc(S(=O)(=O)Nc2cc(C)ccc2C)cc1
inactive: [1] 94 % of control | [2] 103 % of control | [3] 103 % of control

COc1cccc2cc(C3(c4ccccc4)OC(=O)c4ccccc43)ccc12 (stereo not drawn)
inactive: dose: 100.0 mg/kg/injection, schedule: Q01DX001 (ip), vehicle: other 90 % of control | dose: 200.0 mg/kg/injection, schedule: Q01DX001 (ip), vehicle: other 94 % of control | dose: 400.0 mg/kg/injection, schedule: Q01DX001 (ip), vehicle: other 95 % of control

CCCCCCCCn1nnnc1-c1nnn(C)n1
inactive: [1] 106 % of control | [2] 104 % of control | [3] 101 % of control

CC(=O)Nc1cccc2c1Cc1cc([N+](=O)[O-])ccc1-2
inactive: [4] 93 % of control | dose: 100.0 mg/kg/injection, schedule: Q01DX001 (ip), vehicle: carboxymethylcellulose (CMC) 92 % of control | [5] 93 % of control | dose: 200.0 mg/kg/injection, schedule: Q01DX001 (ip), vehicle: carboxymethylcellulose (CMC) 92 % of control | [6] 94 % of control | dose: 400.0 mg/kg/injection, schedule: Q01DX001 (ip), vehicle: carboxymethylcellulose (CMC) 87 % of control

Cc1ccc(S(=O)(=O)N/N=C\C(O)C(O)C(O)CO)cc1 (stereo not drawn)
inactive: dose: 100.0 mg/kg/injection, schedule: Q04DX002 (ip), vehicle: saline with Tween-80 97 % of control | dose: 200.0 mg/kg/injection, schedule: Q04DX002 (ip), vehicle: saline with Tween-80 94 % of control | dose: 400.0 mg/kg/injection, schedule: Q04DX002 (ip), vehicle: saline with Tween-80 97 % of control

CCC/C=C(\C)C(C)(C#N)C(=O)OCC (stereo not drawn)
inactive: dose: 75.0 mg/kg/injection, schedule: Q01DX001 (ip), vehicle: other 112 % of control | dose: 150.0 mg/kg/injection, schedule: Q01DX001 (ip), vehicle: other 98 % of control | dose: 300.0 mg/kg/injection, schedule: Q01DX001 (ip), vehicle: other 110 % of control

CCOC(=O)C(CCC(=O)O)NC(=O)OCc1ccccc1 (stereo not drawn)
inactive: [4] 94 % of control | [1] 101 % of control | [5] 94 % of control and 100 % of control | [2] 106 % of control | [6] 93 % of control

CC(N)C(O)C(Cl)(Cl)Cl (stereo not drawn)
inactive: [7] 92 % of control | [8] 92 % of control | [9] 90 % of control

C(=N\n1cnnc1)/c1ccccc1/C=N/n1cnnc1
inactive: dose: 100.0 mg/kg/injection, schedule: Q01DX009 (ip), vehicle: saline with Tween-80 116 % of control | [7] 103 % of control | dose: 200.0 mg/kg/injection, schedule: Q01DX009 (ip), vehicle: saline with Tween-80 96 % of control | [8] 100 % of control | dose: 400.0 mg/kg/injection, schedule: Q01DX009 (ip), vehicle: saline with Tween-80 89 % of control | [9] 89 % of control

CCOC(=O)C(O)(C(=O)OCC)C1C(=O)c2ccccc2C1=O
inactive: [4] 91 % of control | [5] 98 % of control | [6] 99 % of control

NCC(=O)c1ccc(-c2ccccc2)cc1
inactive: dose: 100.0 mg/kg/injection, schedule: Q01DX001 (ip), vehicle: saline 97 % of control | dose: 100.0 mg/kg/injection, schedule: Q04DX003 (ip), vehicle: saline 90 % of control | dose: 200.0 mg/kg/injection, schedule: Q01DX001 (ip), vehicle: saline 92 % of control | dose: 200.0 mg/kg/injection, schedule: Q04DX003 (ip), vehicle: saline 98 % of control | dose: 400.0 mg/kg/injection, schedule: Q01DX001 (ip), vehicle: saline 97 % of control
